From patent US8080579B2, “Compositions and methods for treatment of inflammatory bowel disease” (The Regents of The University of Michigan, priority 2005, dated 2011)

Columns and labels:
[1] = system: intestinal epithelial cells; assay: Epithelial cell proliferation (BrdU), short bowel syndrome model; format: in vivo, mice; conditions: FIG. 11
Description: Epithelial cell proliferation: Mice were given a dose of bromodeoxyuridine (BrdU) 1 to 2 hours prior to sacrifice. Tissues harvested from the intestine were subsequently stained for BrdU as a marker of cellular proliferation.

[2] = system: TNF-α; assay: IEL TNF-α mRNA by RT-PCR, short bowel syndrome model; format: in vivo; conditions: Sham operated mice, enalaprilat 0.6 mg/kg/day i.p., 7 days
Description: (§1) Short Bowel Syndrome Model: A 70% mid-small bowel resection was performed (i.e. bowel between 3.5 cm distal to the ligament of Treitz and 3.5 cm proximal to the ileocecal valve), followed by an end-to-end jejuno-ileal anastomosis with 7-0 monofilament, absorbable suture. Postoperatively a subcutaneous bolus of 3 ml 0.9% saline solution was given to maintain hydration status.
(§2) Sham operation: Mid-small bowel was transsected and re-anastomosed without bowel-resection.
(§3) IEL purification: Isolation of purified IEL from EC was performed by direct magnetic separation. Magnetic beads conjugated with antibody to CD45 (pan-lymphoid marker) were used to segregate IEL from EC (BioMag SelectaPure Anti-Mouse CD 45R Antibody Particles, Polyscience Inc., Warrington, Pa.). […]
Reverse transcriptase polymerase chain reaction (RT-PCR): mRNA (poly-A positive) was reversed transcribed into cDNA following a standard protocol. […] Gel bands were analyzed by DNA sequencing to ensure the correct product. Kodak EDAS System (Rochester, N.Y.) was used for imaging and quantification. Results were expressed as the ratio of the investigated mRNA over the β-actin mRNA expression.
(§4) To further understand the relevance of ACE expression on EC apoptosis, ACE-inhibition was used. […] After 1 week, mice were killed, EC apoptotic rates assessed, and IEL mRNA and protein isolated.

[3] = system: angiotensin converting enzyme (ACE); assay: IEL ACE protein by immunoblot, short bowel syndrome model; format: in vivo, mice; conditions: enalaprilat 0.6 mg/kg/day i.p., 7 days
Description: as §1, §2, §3
Immunoblot analysis: Protein was extracted from isolated IEL and immunoblots performed by using a Bio-Rad protein assay kit (Bio-Rad Laboratories, Hercules, Calif.), with standard methods. […] Expression for β-actin was determined in the same fashion by re-probing membranes with purified anti-mouse β-actin (1:12000, Sigma-Aldrich, St. Louis, Mo.). Results are expressed as the ratio of ACE over β-actin protein expression.
as §4

[4] = system: angiotensin converting enzyme (ACE); assay: IEL ACE mRNA by real time PCR, short bowel syndrome model; format: in vivo, mice; conditions: enalaprilat 0.6 mg/kg/day i.p., 7 days
Description: as §1, §2
IEL purification: Isolation of purified IEL from EC was performed by direct magnetic separation. Magnetic beads conjugated with antibody to CD45 (pan-lymphoid marker) were used to segregate IEL from EC (BioMag SelectaPure Anti-Mouse CD 45R Antibody Particles, Polyscience Inc., Warrington, Pa.). Magnetic separation was performed twice to further deplete EC. […]
Real time PCR: Real-time PCR was run to better quantify actual changes in ACE expression. cDNA was also used for real time PCR. The same primers for ACE and β-actin were used as for conventional PCR, SYBR Green I was utilized for fluorescence. […] Ct-values of ACE and β-actin were converted to numbers of cDNA copies, and results expressed as the ratio of ACE over β-actin expression.
as §4

## C[C@H](N[C@@H](CCc1ccccc1)C(=O)O)C(=O)N1CCC[C@H]1C(=O)O [ACE-I, enalaprilat]
[1]
  Epithelial cell proliferation: increase significantly
[2]
  IEL TNF-α mRNA (ratio over β-actin mRNA): 0.37 ± 0.07
[3]; SBS mice
  IEL ACE protein (ratio of ACE over β-actin protein expression): 0.14 ± 0.03
[3]; Sham operated mice
  IEL ACE protein (ratio of ACE over β-actin protein expression): 0.13 ± 0.01
[4]; SBS mice
  IEL ACE mRNA (ratio of ACE-cDNA copies over β-actin-cDNA copies): 0.63 ± 0.25
[4]; Sham operated mice
  IEL ACE mRNA (ratio of ACE-cDNA copies over β-actin-cDNA copies): 0.66 ± 0.22
